Results taken from patent US8552169B2, “Transcription factor-based biosensor” (The Regents of the University of California, priority 2009, dated 2013).

B1: BmoR: σ54-dependent transcription factor (activator protein) of P. butanovora, SEQ ID NO: 4, activated by C2-C8 alcohols (protein, listed as Pseudomonas butanova)
chain: MSKMQEFARLETVASMRRAVWDGNECQPGKVADVVLRSWTRCRAEGVVPNARQEFDPIPRTALDETVEAKRALILAAEPVVDALMEQMNDAPRMIILNDERGVVLLNQGNDTLLEDARRRAVRVGVCWDEHARGTNAMGTALAERRPVAIHGAEHYLESNTIFTCTAAPIYDPFGEFTGILDISGYAGDMGPVPIPFVQMAVQFIENQLFRQTFADCILLHFHVRPDFVGTMREGIAVLSREGTIVSMNRAGLKIAGLNLEAVADHRFDSVFDLNFGAFLDHVRQSAFGLVRVSLYGGVQVYARVEPGLRVPPRPAAHARPPRPAPRPLDSLDTGDAAVRLAIDRARRAIGRNLSILIQGETGAGKEVFAKHLHAESPRSKGPFVAVNCAAIPEGLIESELFGYEEGAFTGGRRKGNIGKVAQAHGGTLFLDEIGDMAPGLQTRLLRVLQDRAVMPLGGREPMPVDIALVCATHRNLRSLIAQGQFREDLYYRLNGLAISLPPLRQRSDLAALVNHILFQCCGGEPHYSVSPEVMTLFKRHAWPGNLRQLHNVLDAALAMLDDGHVIEPHHLPEDFVMEVDSGLRPIEEDGSTAAHRARQPASGSGPAKKLQDLALDAIEQAIEQNEGNISVAARQLGVSRTTIYRKLRQLSPTGCHRPAHWSQSRIGT

Legend:
pBMO promoter activity = type: cell-based, E. coli; conditions: for activation of pBMO-promoter expression by BmoR in response to alcohol: E. coli, pBMO::GFP reporter
Description: A pBMO-promoter::GFP reporter cassette is constructed. The pBMO-promoter comprises the nucleotide sequences from the −425 nucleotide to the +11 nucleotide. This section of the pBMO-promoter comprises the upstream activating sequence (UAS) to which BmoR binds. A deletion analysis is performed whereby the upstream sequence is deleted to produce reporter cassettes comprising of the −325 nucleotide to the +1 nucleotide fragment, the −225 nucleotide to the +1 nucleotide fragment, the −175 nucleotide to the +1 nucleotide fragment, the +1 nucleotide to the +1 nucleotide fragment, and no fragment (FIG. 3). The various reporter cassettes are introduced into an E. coli. also containing the bmoR gene operatively linked to the pBAD promoter or a pZT promoter. The pBAD promoter is taught by Guzman, L. M., et al., “Tight regulation, modulation, and high-level expression by vectors containing the arabinose PBAD promoter”, J. Bacteriol. 177(14):4121-4130 (1995), which is incorporated by reference.
Using the pBMO-promoter reporter cassette comprising of the −325 nucleotide to the +1 nucleotide fragment, the E. coli strain is analyzed for the optimum temperature for pBMO promoter activity using different concentrations of butan-1-ol.
Using the pBMO-promoter reporter cassette comprising of the −325 nucleotide to the +1 nucleotide fragment, the E. coli strain is analyzed for pBMO promoter activity in response to different alcohols: butan-1-ol (FIG. 5), ethanol (FIG. 6), 1-propanol (FIG. 6), 2-propanol (FIG. 6), pentanol (FIG. 5), and hexanol (FIG. 5). From an overnight culture harboring a plasmid containing GFP under control of pBMO and BmoR under control of pZT 5 mL cultures of rich media were inoculated (1.5% v/v). Cultures are grown at 37° C., 200 rpm, until reaching an optical density (OD600) of 0.25 and induced with 57.5 ng/mL anhydrotetracyline. The cultures are than grown at 25° C., 200 rpm, until reaching an OD600=0.80 at which point they are diluted to an OD600=0.20 in media containing a range of alcohol concentrations. The culture tubes are sealed with parafilm and grown at 25° C., 200 rpm, for 18 hours. 150 μl culture samples are quantified for GFP fluorescence on a 96-well plate reader.

[1] = test system: E. coli cultures harboring the butanol biosensor controlling TetA expression; conditions: media with multiple concentrations of butanol and tetracycline; N=4
Description: The BmoR transcription factor is used to construct a genetic selection for the presence of butanol in the media.
Maximal growth rates are calculated by fitting curves to the Gompertz equation. […] N=4, mean±standard deviation.

[2] = test system: 300-nucleotide DNA fragment upstream of the pBMO-promoter; test: Gel mobility shift assay; type: binding; conditions: purified His-tagged BmoR, DIG Gel Shift Kit
From the text: A DIG Gel Shift Kit (Roche Applied Science, Indianapolis, Ind.) is used according to the manufacturer's instructions.

Molecule	activation of pBMO-promoter expression by BmoR in response to alcohol (pBMO promoter activity)	also measured
CCCCCCO [1-hexanol]	capable of activating pBMO-promoter expression	
CCCCCO [1-pentanol]	capable of activating pBMO-promoter expression	
CCCO [1-propanol]	capable of activating pBMO-promoter expression	
CC(C)O [2-propanol]	capable of activating pBMO-promoter expression	
CCC(C)O (stereo not drawn) [butan-1-ol]	capable of activating pBMO-promoter expression	butanol dependent growth (maximal growth rate) [1]: strong butanol dependent growth; activation of the reporter gene (optimum condition) (pBMO promoter activity; cultured at 25° C. with 0.5% of butan-1-ol by volume, compared to the other conditions tested): the activation of the reporter gene is the strongest
CCO [ethanol]	capable of activating pBMO-promoter expression	
B1		binding of BmoR upstream of the pBMO-promoter (band shift) [2]: A band shift is observed
